{"source": "patent US20170165317A1", "about": "“METHOD FOR MITIGATING OR ALLEVIATING SYNAPTIC AND COGNITIVE DEFICITS” (Trustees of Dartmouth College, priority 2013, published 2017)", "key": {"[1]": {"test_system": "CA1 individual neurons", "test": "Whole-cell LTP (pairing protocol) in CA1 neurons of organotypic slices with APPswe/lnd-EGFP expression", "type": "cell-based, rat", "details": "VO-OHpic 26-48 hours", "experimental": "The different versions of APP (APPwt, APPswe/lnd APPMV) and EGFP were co-expressed using an internal ribosomal entry site (IRES) construct. The EGFP-tagged versions of PTEN have been described (Jurado, et al. (2010) EMBO J. 29:2827-2840). All constructs were prepared in pSinRep5 for expression using Sindbis virus. Recombinant proteins were expressed in hippocampal CA1 pyramidal neurons from organotypic slice cultures. Organotypic hippocampal slices were prepared from postnatal day 5-7 rats and cultured during 6-8 days.\nThe external solution (aCSF) contained 119 mM NaCl, 2.5 mM KCl, 1 mM NaH2PO4, 11 mM glucose, 26 mM NaHCO3, 4 mM MgCl2, 4 mM CaCl2, 100 μM picrotoxin and 2 μM 2-chloroadenosine, pH 7.4, and was gassed with 95% O2 and 5% CO2. Patch recording pipettes (4-7 MO) were filled with internal solution containing 115 mM CsMeSO3, 20 mM CsCl, 10 mM HEPES, 2.5 mM MgCl2, 4 mM Na2-ATP, 0.4 mM Na-GTP, 10 mM sodium phosphocreatine and 0.6 mM EGTA, pH 7.25. Bipolar stimulating electrodes were placed over Schaffer collateral fibers between 250 and 300 μm from the CA1 recorded cells, and synaptic responses were evoked with single voltage pulses (200 μs, up to 30 V). Responses were collected at −60 mV and +40 mV and averaged over 50-100 trials. LTP was induced using a pairing protocol by stimulating Schaffer collateral fibers at 3 Hz for 1.5 minutes while depolarizing the postsynaptic cell at 0 mV. All electrophysiological data were collected with pCLAMP software (Molecular Devices). Immunohistochemistry For the immunostaining protocol, hippocampal slice cultures were fixed with 4% paraformaldehyde for 24 hours washed in PBS and blocked with 5% horse serum for 2 hours. Sections were then incubated for 48 hours at 4° C. with primary antibody. […]\nHowever, this form of depression may in principle be due to Aβ exposure, to intracellular fragments derived from APP processing, or a combination thereof. To test the role of PTEN specifically in the effects of neuron-secreted Aβ, synaptic dysfunctions were monitored in untransfected cells neighboring APPswe/lnd-expressing neurons. […]"}, "[2]": {"test_system": "APP/PS1 mice", "test": "Contextual fear conditioning after i.c.v. infusion", "type": "in vivo, mouse", "details": "VO-OHpic infusion", "experimental": "APP/PS1 and wild-type mice were anesthetized with isofluorane, and i.c.v. delivery cannulas (brain alzet kit III) were implanted with a stereotaxic frame (KOPF Instruments) at the following coordinates according to the bregma: AP, −0.5 mm; ML, 1 mm; and DV, −2.2 mm. Osmotic minipumps (Alzet) were filled with artificial cerebrospinal fluid (aCSF) with or without PTEN inhibitor VO-OHpic (2.5 μM) and equilibrated in 0.9% NaCl at 37° C. for 48 hours. They were attached to the i.c.v. cannula tubing and subcutaneously implanted at the back. After 21 days, behavioral testing was started as described herein. […]\nFear conditioning. […] The animals' behavior was scored by an observer blind to the treatment condition. Using a time-sampling procedure every 2 seconds, each mouse was scored blindly as either freezing or active at the instant the sample was taken. […]\nIt was posited that if early Aβ-induced cognitive impairment results from a general synaptic bias toward LTD events (Selkoe (2002) Science 298:789-791), dampening this form of synaptic plasticity might prevent cognitive decay. Therefore, it was determined whether in vivo inhibition of PTEN, a lipid phosphatase that is involved in LTD (Jurado, et al. (2010) EMBO J. 29:2827-2840), would rescue cognitive deficits in APP/PS1 mice. […]"}}}
{"molecule": "O=C(O)c1ncccc1O.O=C(O)c1ncccc1O.[O]=[V][O-]", "note": "[VO-OHpic]", "values": [{"measurement": "LTP potentiation, APPswe/lnd-EGFP infected cells", "setting": "[1]; P=0.01", "value": 220, "unit": "%"}, {"measurement": "LTP potentiation, uninfected cells exposed to Aβ", "setting": "[1]; uninfected neurons adjacent to infected cells, P=0.0006", "value": 339, "unit": "%"}, {"measurement": "magnitude of LTP in control slices", "setting": "[1]; slices not exposed to APPswe/lnd-EGFP virus", "value": "did not affect the magnitude of LTP"}, {"measurement": "contextual fear conditioning performance (percentage freezing to the context)", "setting": "[2]; APP/PS1 mice, P=0.002", "value": "significantly improved their performance"}, {"measurement": "contextual fear conditioning performance (percentage freezing to the context)", "setting": "[2]; wild-type mice", "value": "without altering"}]}
